Tests used:
[1] = Inhibitory activity against 5-hydroxytryptamine 1D receptor in calf
[2] = as above; remark: listed apart in the source

| SMILES | IC50 [1] [nM] | IC50 [2] [nM] |
| --- | --- | --- |
| CCc1[nH]c2ccc(OC)cc2c1CCN(C)C [2-ethyl-5-methoxy-N,N-dimethyltryptamine] | 1400 | – |
| COc1ccc2[nH]c(C)c(C3=CCNCC3)c2c1 [5-Methoxy-2-methyl-3-(1,2,3,6-tetrahydro-pyridin-4-yl)-1H-indole] | – | > 1000 |
